From ChEMBL document CHEMBL1201862, “PubChem BioAssay data set” (2004)
Calls of active or inactive are those of the source.

Columns and labels:
[1] = alpha-synuclein stem-loop luciferase translation blockers – H4 neuroglioma cells, luminescence, confirmation (AID 1988); format: functional, cell-based
Streptococcus = test: GAS UMAA2166 growth inhibition – luminescence, BacTiterGlo, counter-screen for streptokinase expression inhibitor project, dose response (AID 1915); format: functional, organism-based;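 note: potency for reduction of bacterial viability or growth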
[2] = molecular target: T1, Replicative DNA helicase DnaB (Mycobacterium tuberculosis, UniProt P9WMR3); test: DnaB intein splicing inhibitors, dose response, biochemical, cell-free fluorescence (AID 449749); format: functional
T1 sequence (P9WMR3 whole entry): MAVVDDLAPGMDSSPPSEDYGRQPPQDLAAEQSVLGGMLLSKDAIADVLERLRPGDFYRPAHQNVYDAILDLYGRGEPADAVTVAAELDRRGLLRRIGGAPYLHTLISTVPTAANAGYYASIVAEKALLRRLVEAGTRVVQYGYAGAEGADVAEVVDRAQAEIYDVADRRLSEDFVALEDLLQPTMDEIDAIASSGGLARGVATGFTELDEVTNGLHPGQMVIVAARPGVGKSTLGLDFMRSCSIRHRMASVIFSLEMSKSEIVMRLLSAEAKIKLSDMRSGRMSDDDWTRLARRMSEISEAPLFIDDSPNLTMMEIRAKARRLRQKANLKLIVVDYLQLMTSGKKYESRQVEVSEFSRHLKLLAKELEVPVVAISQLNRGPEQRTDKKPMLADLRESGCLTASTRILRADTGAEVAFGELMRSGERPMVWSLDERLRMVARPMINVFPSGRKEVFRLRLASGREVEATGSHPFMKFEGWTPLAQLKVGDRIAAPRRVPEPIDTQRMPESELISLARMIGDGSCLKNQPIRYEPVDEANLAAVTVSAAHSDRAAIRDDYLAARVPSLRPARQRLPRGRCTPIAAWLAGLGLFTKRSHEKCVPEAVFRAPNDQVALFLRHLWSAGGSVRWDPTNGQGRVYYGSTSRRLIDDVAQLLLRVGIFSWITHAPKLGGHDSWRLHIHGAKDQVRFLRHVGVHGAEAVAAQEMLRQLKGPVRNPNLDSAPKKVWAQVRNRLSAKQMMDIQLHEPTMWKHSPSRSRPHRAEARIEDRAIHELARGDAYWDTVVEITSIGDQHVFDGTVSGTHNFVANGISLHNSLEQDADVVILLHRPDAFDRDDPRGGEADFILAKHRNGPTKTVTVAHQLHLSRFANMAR

[3] = molecular target: G-protein coupled receptor 55 (Homo sapiens, UniProt Q9Y2T6); test: inhibition of LPI-stimulated GPR55 beta-arrestin translocation – imaging, U2OS, beta-arrestin-GFP, LPI agonist, primary screen (AID 2013); format: functional;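 note: antagonist potency measured as reduced agonist-driven arrestin aggregation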
[4] = Trypanosoma cruzi growth suppression in host cells – NIH3T3 host cells, beta-gal luminescence, confirmation (AID 2044); format: functional, cell-based;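 note: intracellular parasites grown in NIH/3T3 mouse fibroblasts as host cells; luminescent beta-galactosidase reporter signal from transgenic T. cruzi replicating inside host cells; inhibitors lower the luminescence signal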
[5] = molecular target: T2, Histone-lysine N-methyltransferase NSD2 (Homo sapiens, UniProt O96028); format: biochemical
T2 sequence (O96028 whole entry): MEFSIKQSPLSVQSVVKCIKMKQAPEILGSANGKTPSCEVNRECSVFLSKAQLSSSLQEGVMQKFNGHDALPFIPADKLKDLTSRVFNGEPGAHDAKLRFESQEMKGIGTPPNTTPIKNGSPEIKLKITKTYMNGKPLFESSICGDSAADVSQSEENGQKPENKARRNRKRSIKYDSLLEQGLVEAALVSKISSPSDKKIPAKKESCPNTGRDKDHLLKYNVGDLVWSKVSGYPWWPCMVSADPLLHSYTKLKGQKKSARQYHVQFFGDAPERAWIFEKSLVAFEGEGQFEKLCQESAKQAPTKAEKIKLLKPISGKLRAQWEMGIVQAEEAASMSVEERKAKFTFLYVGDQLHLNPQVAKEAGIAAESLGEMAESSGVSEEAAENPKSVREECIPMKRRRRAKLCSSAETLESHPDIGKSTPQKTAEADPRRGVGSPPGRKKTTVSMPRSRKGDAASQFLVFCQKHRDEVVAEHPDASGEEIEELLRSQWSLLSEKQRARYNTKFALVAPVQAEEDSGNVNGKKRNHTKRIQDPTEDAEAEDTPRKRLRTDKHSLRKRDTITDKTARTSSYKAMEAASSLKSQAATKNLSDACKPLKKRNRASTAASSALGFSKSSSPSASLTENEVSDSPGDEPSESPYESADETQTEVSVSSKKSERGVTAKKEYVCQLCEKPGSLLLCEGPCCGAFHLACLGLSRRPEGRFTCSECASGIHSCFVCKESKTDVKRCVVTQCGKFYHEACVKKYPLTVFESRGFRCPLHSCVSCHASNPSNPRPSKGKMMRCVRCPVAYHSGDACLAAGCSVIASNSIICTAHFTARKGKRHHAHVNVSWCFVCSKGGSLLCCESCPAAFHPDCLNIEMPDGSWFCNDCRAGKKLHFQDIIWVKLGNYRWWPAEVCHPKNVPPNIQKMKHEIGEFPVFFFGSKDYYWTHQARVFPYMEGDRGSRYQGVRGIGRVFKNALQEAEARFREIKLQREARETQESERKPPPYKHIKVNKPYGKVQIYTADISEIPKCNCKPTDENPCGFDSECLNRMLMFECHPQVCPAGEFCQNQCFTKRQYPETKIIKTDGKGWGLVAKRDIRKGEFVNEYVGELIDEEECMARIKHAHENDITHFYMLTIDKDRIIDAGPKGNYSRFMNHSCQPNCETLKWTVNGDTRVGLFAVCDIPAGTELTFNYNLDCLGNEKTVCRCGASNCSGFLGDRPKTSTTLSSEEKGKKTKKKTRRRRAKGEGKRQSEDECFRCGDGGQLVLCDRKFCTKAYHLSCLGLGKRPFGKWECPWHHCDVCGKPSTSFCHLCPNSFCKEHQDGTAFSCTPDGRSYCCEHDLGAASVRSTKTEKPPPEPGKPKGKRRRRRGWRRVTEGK

[6] = molecular target: T3, RNA-binding protein pos-1 (Caenorhabditis elegans, UniProt G5EF15); test: disruptors of C. elegans POS-1 RNA interaction – biochemical, fluorescence polarization, dose response (AID 1964);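 note: purified POS-1 fused to maltose binding protein made in E. coli; potency of compounds blocking POS-1 binding to fluorescent RNA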
T3 sequence (G5EF15 whole entry): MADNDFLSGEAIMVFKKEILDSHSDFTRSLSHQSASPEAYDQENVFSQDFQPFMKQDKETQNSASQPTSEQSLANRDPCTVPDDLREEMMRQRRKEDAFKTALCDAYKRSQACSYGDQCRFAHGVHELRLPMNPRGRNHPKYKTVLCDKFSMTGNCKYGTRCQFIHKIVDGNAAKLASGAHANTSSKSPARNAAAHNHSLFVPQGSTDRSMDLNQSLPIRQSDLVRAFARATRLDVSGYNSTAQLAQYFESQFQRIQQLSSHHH

[7] = molecular target: DNA dC->dU-editing enzyme APOBEC-3G (Homo sapiens, UniProt Q9HC16); test: Dose Response confirmation of small molecule APOBEC3G DNA Deaminase Inhibitors via a fluorescence-based single-stranded DNA deaminase assay. [Related pubchem assays (depositor defined):AID493012, AID493028]; format: functional
[8] = molecular target: DNA dC->dU-editing enzyme APOBEC-3A (Homo sapiens, UniProt P31941); test: A3A deaminase inhibition for selectivity – biochemical, dose response (AID 504722); format: functional
DNA dC->dU-editing enzyme APOBEC-3A, sequence (P31941 whole entry): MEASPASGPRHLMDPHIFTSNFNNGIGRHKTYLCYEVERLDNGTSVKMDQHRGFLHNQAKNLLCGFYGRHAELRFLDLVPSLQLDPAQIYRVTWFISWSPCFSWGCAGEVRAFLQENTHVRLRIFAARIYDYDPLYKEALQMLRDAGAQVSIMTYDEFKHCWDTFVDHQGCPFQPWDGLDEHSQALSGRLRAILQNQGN

DNA dC->dU-editing enzyme APOBEC-3G, sequence (Q9HC16 whole entry): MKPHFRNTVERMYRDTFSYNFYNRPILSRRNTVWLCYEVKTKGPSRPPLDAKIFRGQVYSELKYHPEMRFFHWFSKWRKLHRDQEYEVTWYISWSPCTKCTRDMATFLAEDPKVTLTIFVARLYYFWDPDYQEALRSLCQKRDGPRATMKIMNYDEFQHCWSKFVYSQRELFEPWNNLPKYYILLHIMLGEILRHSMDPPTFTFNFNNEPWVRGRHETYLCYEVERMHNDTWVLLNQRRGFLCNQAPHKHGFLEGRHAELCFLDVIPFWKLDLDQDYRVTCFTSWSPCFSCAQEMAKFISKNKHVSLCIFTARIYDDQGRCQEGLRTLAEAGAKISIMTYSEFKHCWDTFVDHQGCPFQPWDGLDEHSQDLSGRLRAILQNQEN
G-protein coupled receptor 55, sequence (Q9Y2T6 whole entry): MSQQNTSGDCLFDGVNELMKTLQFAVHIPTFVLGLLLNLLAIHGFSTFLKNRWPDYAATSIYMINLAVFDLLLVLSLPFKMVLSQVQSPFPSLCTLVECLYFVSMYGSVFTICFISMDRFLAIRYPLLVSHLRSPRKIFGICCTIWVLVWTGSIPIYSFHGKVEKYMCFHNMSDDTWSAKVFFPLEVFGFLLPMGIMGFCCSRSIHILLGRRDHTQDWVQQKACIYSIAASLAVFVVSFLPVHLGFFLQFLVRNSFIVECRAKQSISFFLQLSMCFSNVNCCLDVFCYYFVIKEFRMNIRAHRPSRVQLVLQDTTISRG

Structure (SMILES)	EC50 [1]	EC50 (Streptococcus)	AC50 [2]	IC50 [3]	EC50 [4]	AC50 [5]	EC50 [6]	IC50 [7]	IC50 [8]
Cc1ccc(NC2=C/C(=N\S(=O)(=O)c3cccs3)c3ccccc3C2=O)c(C)c1	8.43 µM (inconclusive)	3.08 µM (active)	0.339 µM (active)	1.87 µM (active)	0.719 µM (active)				
COc1ccc(/C=N/NC(=O)c2nn(-c3ccccc3)c(=O)c3c(N)scc23)cc1						> 20 µM (inactive)			
Oc1ccc(-c2cn3c(n2)SCC3)cc1O						2.95 µM (active)	3.63 µM (active)	12.6 µM (active)	> 100 µM (inactive)
CC(=O)N(C1=C(Cl)C(=O)c2ccccc2C1=O)C1CCCCC1	> 120 µM (not active)	> 150 µM (not active)	2.98 µM (active)	4.55 µM (active)	1.83 µM (active)		139 µM (active)	7.68 µM (active)	> 100 µM (inactive)
